Test results taken from patent EP0111413A1, “Novel sulfone, process for its preparation, composition containing it and use thereof” (priority 1982, dated 1984).

Legend:
Wild oat = assay: Postemergence herbicidal test; type: in vivo, Avena fatua; details: Application rate 4.0 lb/A, postemergence spray, rated visually nineteen days later
Text: (§1) Aluminum planting flats measuring 15.2 x 22.9 x 8.9 cm were filled to a depth of 7.6 cm with loamy sand soil, containing 50 parts per million (ppm) each of the commercial fungicide cis-N(trichloromethyl)thio -4-cyclohexane-l,2-dicarboximide (Captan®) and 17-17-17 fertilizer (percentages of N-P2O5-K2O) on a weight basis). Several rows were impressed across the width of each flat and a variety of seeds of both grass and broadleaf weed species were planted, one species per row. The weed species used are listed below:
(§2) The broad leaf species were seeded first, and the grasses were seeded four days later. Ample seeds of each species were planted to produce 20 to 50 seedlings per row after emergence, depending on the size of each plant.
(§3) Ten days after the grasses were seeded, the emerged seedlings of all species were sprayed with aqueous solutions of the test compounds. The solutions were prepared to such dilutions that a spray rate of 80 gallons per acre (750 liters per hectare) gave from 0.5 to 4.0 pounds of test compound per acre (0.56 to 4.48 kilograms per hectare) as desired for each test. Additional flats not treated at all were used as standards for measuring the extent of weed control in the treated flats. […]

Foxtail = assay: Postemergence herbicidal test; type: in vivo, Setaria sp.; details: Application rate 4.0 lb/A, postemergence spray, rated visually nineteen days later
Text: as §1, §2, §3

Alternaria solani = assay: Minimum Inhibitory Concentration test in nutrient broth (fungal); type: cell-based; design: key: + = Growth; - = No Growth
Description: (§4) A Minimum Inhibitory Concentration test with bacteria and fungus was performed in nutrient broth. The test compound was added to sterile broth at 0.1% (1000PPM) and diluted sequentially with sterile broth to yield required levels. One drop of an actively-growing 24-hour culture was added to each level and incubated for a period of 24 hours at a temperature of 30°C. At the end of the time period, an aliquot from each tube was placed on nutrient agar and observed for growth.

Watergrass = assay: Postemergence herbicidal test; type: in vivo, Echinochloa crusgalli; details: Application rate 4.0 lb/A, postemergence spray, rated visually nineteen days later
Text: as §1, §2, §3

Annual morning glory = assay: Postemergence herbicidal test; type: in vivo, Ipomoea purpurea; details: Application rate 4.0 lb/A, postemergence spray, rated visually nineteen days later
Text: as §1, §2, §3

Pseudomonas aeruginosa = assay: Minimum Inhibitory Concentration test in nutrient broth (bacterial); type: cell-based; design: key: + = Growth; - = No Growth
Description: as §4

Mustard = assay: Postemergence herbicidal test; type: in vivo, Brassica sp.; details: Application rate 4.0 lb/A, postemergence spray, rated visually nineteen days later
Text: as §1, §2, §3

Velvetleaf = assay: Postemergence herbicidal test; type: in vivo, Abutilon theophrasti; details: Application rate 4.0 lb/A, postemergence spray, rated visually nineteen days later
Text: as §1, §2, §3

[1] = 62.5 PPM, buffered to pH 6.8, 24 hours at 30°C
[2] = 62.5 PPM, pH 4, 24 hours at 30°C
[3] = 125 PPM, buffered to pH 6.8, 24 hours at 30°C
[4] = 125 PPM, pH 4, 24 hours at 30°C
[5] = 250 PPM, buffered to pH 6.8, 24 hours at 30°C
[6] = 250 PPM, pH 4, 24 hours at 30°C
[7] = 500 PPM, buffered to pH 6.8, 24 hours at 30°C
[8] = 500 PPM, pH 4, 24 hours at 30°C
[9] = 1000 PPM, buffered to pH 6.8, 24 hours at 30°C
[10] = 1000 PPM, pH 4, 24 hours at 30°C

For `CS(=O)(=O)CC(Cl)C#N` (centres unmarked) [Compound 1, 3-(methylsulfonyl)-2-chloropropanenitrile], the “Percent Control N” value (Wild oat) was 30%, the “Percent Control J” value (Foxtail) was 75% and the Growth (Alternaria solani; [1]) was “+”. The Growth (Alternaria solani; [2]) was “+”, the Growth (Alternaria solani; [3]) was “+” and the Growth (Alternaria solani; [4]) was “-”. For the same compound, the Growth (Alternaria solani; [5]) was “-”, the Growth (Alternaria solani; [6]) was “-” and the Growth (Alternaria solani; [7]) was “-”. For the same compound, the Growth (Alternaria solani; [8]) was “-”, the Growth (Alternaria solani; [9]) was “-” and the Growth (Alternaria solani; [10]) was “-”. For the same compound, the “Percent Control L” value (Watergrass) was 65%, the “Percent Control A” value (Annual morning glory) was 75% and the Growth (Pseudomonas aeruginosa; [1]) was “-”. The Growth (Pseudomonas aeruginosa; [2]) was “-”, the Growth (Pseudomonas aeruginosa; [3]) was “-” and the Growth (Pseudomonas aeruginosa; [4]) was “-”. The Growth (Pseudomonas aeruginosa; [5]) was “-”, the Growth (Pseudomonas aeruginosa; [6]) was “-” and the Growth (Pseudomonas aeruginosa; [7]) was “-”. For the same compound, the Growth (Pseudomonas aeruginosa; [8]) was “-”, the Growth (Pseudomonas aeruginosa; [9]) was “-” and the Growth (Pseudomonas aeruginosa; [10]) was “-”. The “Percent Control E” value (Mustard) was 40% and the “Percent Control D” value (Velvetleaf) was 75%.
